From PMC13113287, “Synthesis and Biological Profiling of New 1,2,3,4-Tetrahydrobenzo[h]naphthyridine-Based Hybrids as Dual Inhibitors of β-Amyloid and Tau Aggregation with Anticholinesterase Activity” (Biomolecules, 2026)

Conditions: reference drugs for assay validation; mean ± SD of three experiments in triplicate

SMILES	Experimental Pe (PAMPA-BBB)
CCn1cc(C(=O)O)c(=O)c2cc(F)c(N3CCNCC3)cc21 [Norfloxacin]	0.8 ± 0.05 10^−6 cm s^−1
CN1C(C(=O)Nc2ccccn2)=C(O)c2ccccc2S1(=O)=O [Piroxicam]	2.4 ± 0.07 10^−6 cm s^−1
